Key:
[1] = system: Xylose reductase (Candida tenuis); experiment: Ratio of catalytic constant (kcat)/Kinetic constant(Km)
[2] = system: Xylose reductase (Candida tenuis); experiment: The catalytic constant(kcat) for the NADH-catalyzed by aldose reductase from candida tenuis; details: Yamadazyma tenuis

| SMILES | k cat/Km [1] | k cat [2] |
| --- | --- | --- |
| CC[C@H]1OC(O)[C@H](O)[C@H]1O (some centres undefined) | 38900 M⁻¹ s⁻¹ | 20.6 s⁻¹ |
| [N-]=[N+]=NC[C@H]1OC(O)[C@H](O)[C@H]1O (some centres undefined) | 1690 M⁻¹ s⁻¹ |  |
| OC1OC(C(F)CF)C(O)C1O (centres undefined) | 15300 M⁻¹ s⁻¹ | 21.4 s⁻¹ |
| C[C@H]1OC(O)[C@H](O)[C@H]1O (some centres undefined) | 23200 M⁻¹ s⁻¹ | 21.6 s⁻¹ |
| OC1O[C@H](CF)[C@H](O)[C@H]1O (some centres undefined) | 34300 M⁻¹ s⁻¹ | 22.3 s⁻¹ |

Reference: ChEMBL document CHEMBL1131752, “Binding and catalysis by yeast aldose reductase: a substrate-analog approach with new aldose derivatives” (Bioorg Med Chem Lett, 1999)
